The test system of experiment [1] is PMA-induced release of endogenous IL-6R from human U-937 cells. The experiment is described as follows: ELISA-based IL-6R release assay, PMA-induced, U-937 cells. Type of experiment: cell-based. Conditions: U-937, 1 h, PMA 62.5 ng/ml, Batimastat at 10 μM. The procedure:
In brief, on day 1, Nunc black MaxiSorp® 96-well plates (Thermo Fisher Scientific, USA) were coated overnight with 100 μl per well of mouse anti-human IL-6R capture antibody (provided as part of the DuoSet ELISA kit) at 2 μg/ml TBS at 4° C. On day 2, the capture antibody solution was removed and MaxiSorp® plates were blocked with 300 μl per well of TBS, 1% BSA at room temperature for 1-2 hours. Meanwhile, 80,000 U-937 (European Collection of Authenticated Cell Cultures, UK) cells in 80 μl of normal growth medium were seeded in each well of Greiner CELLSTAR V-bottom 96-well plates (Thermo Fisher Scientific, USA) and pre-incubated with 20 μl per well of standard growth medium supplemented with Batimastat (BB94, Abcam, UK) at 50 μM as positive control (for a final concentration of 10 μM in the resulting 100 μl sample volume), mouse IgG antibody (Thermo Fisher Scientific, USA) at 5 μg/ml as isotype control (for a final […]) at 37° C., 5% CO2 for 30 minutes. In case of stimulation controls, 20 μl of standard growth medium without test articles were added. […] Using an infinite M1000 (Tecan Group, Switzerland) microplate reader, the fluorescence of each well was collected at an excitation wavelength of 435 nm and an emission wavelength of 555 nm. […]
In general terms: In an ELISA, binding on a coated surface is turned into a signal by an enzyme label.

Experiment [2] deals with PMA-induced release of endogenous TGFα from human PC3 prostate cancer cells. The experiment is described as follows: ELISA-based TGFα release assay, PMA-induced, PC3 cells. In kind it is cell-based. Conditions: PC-3, PMA 25 ng/ml, 2 hours, recombinant murine antibodies and IgG at 1 μg/ml, Batimastat at 10 μM. The procedure:
In brief, on day 1, Nunc black MaxiSorp® 96-well plates (Thermo Fisher Scientific, USA) were coated overnight with 100 μl per well of goat anti-human TGFα capture antibody (provided as part of the DuoSet ELISA kit) at 0.4 μg/ml TBS at 4° C. On day 2, the capture antibody solution was removed and MaxiSorp® plates were blocked with 300 μl per well of TBS, 1% BSA at room temperature for 3 hours. Meanwhile, 100,000 PC3 (European Collection of Authenticated Cell Cultures, UK) cells in 80 μl of normal growth medium were seeded in each well of F-bottom 96-well cell culture plates (Coming, USA) and pre-incubated with 20 μl per well of OptiMEM medium supplemented with Batimastat (BB94, Abcam, UK) at 50 μM as positive control (for a final concentration of 10 μM in the resulting 100 μl sample volume), mouse IgG antibody (Thermo Fisher Scientific, USA) at 5 μg/ml as isotype control (for a final concentration of 1 μg/ml in the resulting 100 μl sample volume) or antibodies of the invention at 5 μg/ml (for a final concentration of 1 μg/ml in the resulting 100 μl sample volume) at 37° C., 5% CO2 for 30 minutes. In case of stimulation controls, 20 μl of OptiMEM medium without test articles were added. […] Using an infinite M1000 (Tecan Group, Switzerland) microplate reader, the fluorescence of each well was collected at an excitation wavelength of 435 nm and an emission wavelength of 555 nm.

SMILES strings stand for the structures.

The values below come from patent US20240287172A1, “PROTEIN BINDERS TO IRHOM2 EPITOPES” (SCIRHOM GMBH, priority 2019, published 2024).

Turning to `CNC(=O)[C@H](Cc1ccccc1)NC(=O)[C@H](CC(C)C)[C@H](CSc1cccs1)C(=O)NO` [Batimastat], the inhibition at 10 µM in experiment [1] (murine (m) and chimeric (ch) antibodies and IgG at 3 μg/ml) came out at 91.6%; in experiment [1] (recombinant murine antibodies and IgG at 1 μg/ml) it was 86.6%; in experiment [2] it was 99.1%.

Usually inhibition stands for how much of the control response was suppressed.
